The subject of assay [1] is human embryonic stem cell line H1. Briefly: Real-time PCR gene expression, ascorbic acid at stages 3-5 (Example 11). The format is cell-based. The settings on record: at stages 4-5. As to the method: (§1) Cells of the human embryonic stem cell line H1 at various passages (passage 40 to passage 52) were seeded as single cells at a density of 100,000 cells/cm^2 on MATRIGEL™ (1:30 dilution) coated dishes in mTesr™1 media and 10 μM of Y27632. Forty eight hours post seeding, cultures were differentiated into pancreatic endocrine lineage as follows: • a. Stage 1 (Definitive Endoderm (DE)−3 days): Prior to start of DE, the cultures were washed and incubated with incomplete PBS (no Mg or Ca) for 30 seconds followed by addition of the stage 1 media. Human embryonic stem cells cultured as single cells on MATRIGEL™-coated dishes were treated with MCDB-131 medium supplemented with 0.1% fatty acid-free BSA, 0.0012 g/ml sodium bicarbonate, 1× GLUTAMAX™, 5 mM D-Glucose, 100 ng/ml GDF8, and 1 μM MCX compound (GSK3B inhibitor) for one day. Cells were then treated with MCDB-131 medium supplemented with 0.1% fatty acid-free BSA, 0.0012 g/ml sodium bicarbonate, 1× GLUTAMAX™, 5 mM glucose, 100 ng/ml GDF8, and 100 nM MCX compound for day two, followed by an additional day in MCDB-131 medium supplemented with 0.1% fatty acid-free BSA, 0.0012 g/ml sodium bicarbonate, 1× GLUTAMAX™, 5 mM Glucose, and 100 ng/ml GDF8. • b. Stage 2 (Primitive gut tube−2 days): Stage 1 cells were treated with MCDB-131 medium supplemented with 0.1% fatty acid-free BSA, 0.0012 g/ml sodium bicarbonate, 1× GLUTAMAX™, 5 mM D-Glucose, and 25 ng/ml FGF7 for two days. • c. Stage 3 (Foregut−2 days): Stage 2 cells were treated with MCDB-131 medium supplemented with 1:200 dilution of ITS-X, 2.5 mM Glucose, 1× GLUTAMAX™, 0.0015 g/ml sodium bicarbonate, 2% fatty acid-free BSA, 10 ng/ml Activin A, 25 ng/ml FGF7, 0.25 μM SANT-1, 1 μM RA, 200 nM TPB (PKC activator), 100 nM LDN-193189 (BMP receptor inhibitor) for one day. Cells were then treated with MCDB-131 medium supplemented with 1:200 dilution of ITS-X, 2.5 mM Glucose, 1× GLUTAMAX™, 0.0015 g/ml sodium bicarbonate, 2% fatty acid-free BSA, 10 ng/ml Activin A, 25 ng/ml FGF7, 0.25 μM SANT-1, 1 μM RA, 200 nM TPB (PKC activator), 10 nM LDN-193189 for an additional day. […]
In general terms: Real-time PCR tracks product formation cycle by cycle.

Assay [2] has the same test system. Kind of assay: Immune staining for insulin, glucagon and somatostatin hormones at end of stage 5 (Example 11). The settings on record: percentage of the entire hormone count, 0.25 mM ascorbic acid. It is filed as cell-based. As to the method:
as §1

Setting [3] is: ascorbic acid added at stage 3 or at stages 3 and 4.

Turning to `O=C1O[C@H]([C@@H](O)CO)C(O)=C1O` [ascorbic acid], the “expression of pancreatic endoderm markers PDX-1 and NKX6.1” value in assay [1] (0.25 mM ascorbic acid) is “not significantly altered”. Also, in assay [1] (setting [3]), the expression of insulin result is reported as “increasing”; the “expression of somatostatin and glucagon” value is recorded as “significantly decreased”. Besides, in assay [2], the “% Polyhormonal” value amounted to 36%, the “% glucagon + plus % somatostatin+” value was 44% and the “% single hormonal Insulin+” value is given as 55%.

The values above are taken from patent US12215354B2, “Differentiation of human embryonic stem cells into single hormonal insulin positive cells” (Janssen Biotech, Inc., priority 2011, dated 2025).
